Values of other authors as cited in US11110072B2, “Broad spectrum pharmacological composition for treatment of various infections and diseases and methods of use” (Greyfer Innova Pharma, LLC, priority 2013, dated 2021).

Experiments:
[1] = after oral administration
[2] = even at high concentrations

excreted unchanged in urine [1]: less than 1%
SMILES: O=C(O)CC(O)(CC(=O)O)C(=O)O [Citric acid, 2-hydroxytricarboxylic acid]
effect in contact with skin [2]: not injurious in contact with skin
